Patent US20120122860A1, “SOLID FORMS OF SULFONAMIDES AND AMINO ACIDS” (Plexxikon, Inc., priority 2009, published 2012)

Tests used:
Src = Src (Homo sapiens, UniProt P12931); assay: Kinase activity assay, Src
C-Raf = C-Raf (Homo sapiens, UniProt P04049); assay: Kinase activity assay, C-Raf
B-Raf = B-Raf (Homo sapiens, UniProt P15056); assay: Kinase activity assay, B-Raf; type: biochemical; conditions: read-out: activity toward kinase B-Raf, IC50
Kit = Kit (Homo sapiens, UniProt P10721); assay: Kinase activity assay, Kit
B-Raf V600E = B-Raf V600E (Homo sapiens, UniProt P15056, V600E); assay: Kinase activity assay, B-Raf V600E; type: biochemical; conditions: read-out: activity toward kinase B-Raf V600E, IC50
Kdr = Kdr (Homo sapiens, UniProt P35968); assay: Kinase activity assay, Kdr
TEC = target: T1, TEC (Homo sapiens, UniProt P42680); assay: Kinase activity assay, TEC
T1 sequence (P42680 1-631): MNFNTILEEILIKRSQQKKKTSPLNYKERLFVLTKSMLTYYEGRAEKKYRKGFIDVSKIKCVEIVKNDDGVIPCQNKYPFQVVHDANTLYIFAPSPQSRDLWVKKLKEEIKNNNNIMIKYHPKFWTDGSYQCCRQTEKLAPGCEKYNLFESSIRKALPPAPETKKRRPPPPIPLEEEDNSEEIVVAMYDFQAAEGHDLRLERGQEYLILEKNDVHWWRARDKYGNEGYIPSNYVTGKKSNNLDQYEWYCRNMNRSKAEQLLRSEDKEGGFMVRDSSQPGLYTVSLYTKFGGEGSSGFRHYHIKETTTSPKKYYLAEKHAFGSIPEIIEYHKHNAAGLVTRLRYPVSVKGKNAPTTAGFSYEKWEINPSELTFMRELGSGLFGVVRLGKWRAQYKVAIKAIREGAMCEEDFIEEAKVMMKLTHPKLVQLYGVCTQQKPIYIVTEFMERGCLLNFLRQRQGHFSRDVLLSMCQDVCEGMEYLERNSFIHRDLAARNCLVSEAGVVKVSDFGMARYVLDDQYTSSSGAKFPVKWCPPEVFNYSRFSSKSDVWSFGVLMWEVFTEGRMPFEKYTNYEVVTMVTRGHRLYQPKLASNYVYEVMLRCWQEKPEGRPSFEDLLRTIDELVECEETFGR

MAP4K4 = MAP4K4 (Homo sapiens, UniProt O95819); assay: Kinase activity assay, MAP4K4
A-Raf = target: T2, A-Raf (Homo sapiens, UniProt P10398); assay: Kinase activity assay, A-Raf
T2 sequence (P10398 1-606): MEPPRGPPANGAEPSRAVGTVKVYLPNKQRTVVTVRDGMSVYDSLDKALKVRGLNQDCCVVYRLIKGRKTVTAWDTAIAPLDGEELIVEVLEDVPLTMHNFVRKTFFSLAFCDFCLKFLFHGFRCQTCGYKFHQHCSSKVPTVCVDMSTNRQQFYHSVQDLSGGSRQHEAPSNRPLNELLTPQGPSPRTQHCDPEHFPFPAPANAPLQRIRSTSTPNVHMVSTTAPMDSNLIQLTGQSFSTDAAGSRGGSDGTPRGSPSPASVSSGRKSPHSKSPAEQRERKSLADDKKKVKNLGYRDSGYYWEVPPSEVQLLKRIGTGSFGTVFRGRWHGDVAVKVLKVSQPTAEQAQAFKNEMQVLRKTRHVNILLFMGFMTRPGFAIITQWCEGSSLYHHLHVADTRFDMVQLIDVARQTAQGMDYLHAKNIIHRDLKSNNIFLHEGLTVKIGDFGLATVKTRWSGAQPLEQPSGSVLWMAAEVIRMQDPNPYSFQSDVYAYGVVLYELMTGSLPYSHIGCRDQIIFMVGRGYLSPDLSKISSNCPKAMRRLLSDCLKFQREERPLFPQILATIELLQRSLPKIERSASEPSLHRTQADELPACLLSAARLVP

Fms = Fms (Homo sapiens, UniProt P07333); assay: Kinase activity assay, Fms

B-Raf V600E, sequence (P15056 whole entry V600E): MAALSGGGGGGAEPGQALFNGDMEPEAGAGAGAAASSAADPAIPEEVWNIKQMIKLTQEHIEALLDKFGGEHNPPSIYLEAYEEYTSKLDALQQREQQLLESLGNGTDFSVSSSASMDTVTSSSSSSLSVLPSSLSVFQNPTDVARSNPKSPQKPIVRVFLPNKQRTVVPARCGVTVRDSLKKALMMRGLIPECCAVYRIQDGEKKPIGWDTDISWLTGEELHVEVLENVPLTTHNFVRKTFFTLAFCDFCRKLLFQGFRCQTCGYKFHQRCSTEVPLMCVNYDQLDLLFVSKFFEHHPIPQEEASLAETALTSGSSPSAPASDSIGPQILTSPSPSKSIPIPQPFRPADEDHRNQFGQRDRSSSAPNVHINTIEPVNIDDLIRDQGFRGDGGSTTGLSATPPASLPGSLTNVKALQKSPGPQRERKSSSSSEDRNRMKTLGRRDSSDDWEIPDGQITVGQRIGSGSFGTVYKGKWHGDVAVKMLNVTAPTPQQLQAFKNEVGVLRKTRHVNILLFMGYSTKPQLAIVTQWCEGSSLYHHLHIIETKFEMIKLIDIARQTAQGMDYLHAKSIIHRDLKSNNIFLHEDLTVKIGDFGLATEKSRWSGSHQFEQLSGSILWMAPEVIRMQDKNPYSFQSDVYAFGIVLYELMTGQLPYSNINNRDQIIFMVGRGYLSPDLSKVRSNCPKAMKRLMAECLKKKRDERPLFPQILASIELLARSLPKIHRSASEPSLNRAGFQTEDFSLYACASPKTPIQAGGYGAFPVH
MAP4K4, sequence (O95819 whole entry): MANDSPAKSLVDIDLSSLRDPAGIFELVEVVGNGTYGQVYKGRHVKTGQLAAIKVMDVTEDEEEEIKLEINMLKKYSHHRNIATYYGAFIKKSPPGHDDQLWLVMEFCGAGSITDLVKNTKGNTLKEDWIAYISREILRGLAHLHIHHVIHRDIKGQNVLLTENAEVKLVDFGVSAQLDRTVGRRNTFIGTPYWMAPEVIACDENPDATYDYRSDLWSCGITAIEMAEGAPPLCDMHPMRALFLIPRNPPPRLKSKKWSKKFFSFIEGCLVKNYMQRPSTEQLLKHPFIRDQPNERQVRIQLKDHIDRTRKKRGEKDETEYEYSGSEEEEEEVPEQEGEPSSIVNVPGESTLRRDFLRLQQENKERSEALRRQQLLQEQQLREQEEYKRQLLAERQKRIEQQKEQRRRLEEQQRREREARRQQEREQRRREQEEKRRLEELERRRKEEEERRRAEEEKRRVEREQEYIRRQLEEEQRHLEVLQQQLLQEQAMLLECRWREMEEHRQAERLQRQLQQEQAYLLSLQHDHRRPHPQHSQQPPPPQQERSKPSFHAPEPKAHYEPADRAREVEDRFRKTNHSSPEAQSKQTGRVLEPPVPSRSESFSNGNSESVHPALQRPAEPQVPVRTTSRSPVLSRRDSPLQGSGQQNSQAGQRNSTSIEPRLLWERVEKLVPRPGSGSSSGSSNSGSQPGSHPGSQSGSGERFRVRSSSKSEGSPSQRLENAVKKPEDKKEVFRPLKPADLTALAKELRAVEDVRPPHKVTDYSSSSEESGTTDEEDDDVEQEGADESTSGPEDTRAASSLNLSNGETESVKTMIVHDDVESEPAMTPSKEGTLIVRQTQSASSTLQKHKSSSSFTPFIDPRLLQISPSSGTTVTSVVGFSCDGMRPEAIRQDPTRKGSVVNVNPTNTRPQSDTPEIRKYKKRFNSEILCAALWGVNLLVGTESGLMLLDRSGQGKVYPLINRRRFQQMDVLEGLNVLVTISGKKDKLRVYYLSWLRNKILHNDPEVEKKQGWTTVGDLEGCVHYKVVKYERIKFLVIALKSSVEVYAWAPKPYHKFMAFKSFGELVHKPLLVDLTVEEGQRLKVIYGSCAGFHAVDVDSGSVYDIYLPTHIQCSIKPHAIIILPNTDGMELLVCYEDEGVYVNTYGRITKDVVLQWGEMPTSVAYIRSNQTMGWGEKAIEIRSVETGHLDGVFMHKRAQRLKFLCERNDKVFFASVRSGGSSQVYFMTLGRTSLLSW
Kdr, sequence (P35968 20-1356): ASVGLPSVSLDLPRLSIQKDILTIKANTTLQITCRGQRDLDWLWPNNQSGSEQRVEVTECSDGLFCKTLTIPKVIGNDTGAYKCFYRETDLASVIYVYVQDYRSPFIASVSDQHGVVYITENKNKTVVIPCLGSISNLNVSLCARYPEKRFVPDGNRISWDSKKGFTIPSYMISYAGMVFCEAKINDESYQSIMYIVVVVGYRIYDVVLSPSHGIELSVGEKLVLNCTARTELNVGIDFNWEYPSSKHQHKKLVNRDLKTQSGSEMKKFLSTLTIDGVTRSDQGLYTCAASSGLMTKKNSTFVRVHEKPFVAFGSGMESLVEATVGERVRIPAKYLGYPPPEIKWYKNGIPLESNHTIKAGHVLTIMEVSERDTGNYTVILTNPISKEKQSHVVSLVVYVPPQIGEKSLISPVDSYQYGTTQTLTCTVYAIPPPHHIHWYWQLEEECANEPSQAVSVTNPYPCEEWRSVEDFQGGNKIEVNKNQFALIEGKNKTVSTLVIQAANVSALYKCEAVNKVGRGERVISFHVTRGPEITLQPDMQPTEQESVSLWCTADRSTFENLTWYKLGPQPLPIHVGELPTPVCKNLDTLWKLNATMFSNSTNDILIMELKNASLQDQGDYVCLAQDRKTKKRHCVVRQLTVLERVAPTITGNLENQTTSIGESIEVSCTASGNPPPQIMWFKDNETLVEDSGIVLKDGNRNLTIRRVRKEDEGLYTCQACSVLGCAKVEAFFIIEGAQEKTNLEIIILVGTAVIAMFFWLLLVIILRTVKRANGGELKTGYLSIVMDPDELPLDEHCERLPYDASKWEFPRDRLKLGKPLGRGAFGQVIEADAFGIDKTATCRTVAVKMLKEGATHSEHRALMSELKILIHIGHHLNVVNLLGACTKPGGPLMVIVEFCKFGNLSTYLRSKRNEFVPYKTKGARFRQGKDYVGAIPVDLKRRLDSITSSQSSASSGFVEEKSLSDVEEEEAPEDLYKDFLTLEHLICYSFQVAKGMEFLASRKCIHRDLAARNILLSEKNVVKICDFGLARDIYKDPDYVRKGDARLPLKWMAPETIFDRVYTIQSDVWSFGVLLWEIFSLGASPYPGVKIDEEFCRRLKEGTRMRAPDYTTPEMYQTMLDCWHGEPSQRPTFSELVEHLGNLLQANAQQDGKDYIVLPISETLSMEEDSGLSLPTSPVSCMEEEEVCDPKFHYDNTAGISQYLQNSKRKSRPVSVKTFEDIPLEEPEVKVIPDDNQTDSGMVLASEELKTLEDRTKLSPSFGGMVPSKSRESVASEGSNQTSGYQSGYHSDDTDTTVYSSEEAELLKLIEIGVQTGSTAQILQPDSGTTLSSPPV
C-Raf, sequence (P04049 whole entry): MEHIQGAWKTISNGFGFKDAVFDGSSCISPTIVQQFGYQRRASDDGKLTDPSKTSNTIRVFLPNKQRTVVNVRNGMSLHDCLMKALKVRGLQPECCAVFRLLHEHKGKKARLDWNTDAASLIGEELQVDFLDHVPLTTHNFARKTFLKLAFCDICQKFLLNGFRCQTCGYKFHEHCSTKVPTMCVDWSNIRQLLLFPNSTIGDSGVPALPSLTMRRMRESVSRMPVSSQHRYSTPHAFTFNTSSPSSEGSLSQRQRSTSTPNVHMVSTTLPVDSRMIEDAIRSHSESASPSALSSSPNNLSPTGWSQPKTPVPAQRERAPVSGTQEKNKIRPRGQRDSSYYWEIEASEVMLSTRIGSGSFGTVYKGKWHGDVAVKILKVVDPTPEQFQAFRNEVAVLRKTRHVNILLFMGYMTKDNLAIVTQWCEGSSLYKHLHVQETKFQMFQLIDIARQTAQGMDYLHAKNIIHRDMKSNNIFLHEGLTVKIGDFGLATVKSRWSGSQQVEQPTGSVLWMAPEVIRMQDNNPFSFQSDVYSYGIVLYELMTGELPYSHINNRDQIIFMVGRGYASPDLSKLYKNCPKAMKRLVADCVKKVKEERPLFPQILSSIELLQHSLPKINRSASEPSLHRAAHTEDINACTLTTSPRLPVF
Kit, sequence (P10721 26-976): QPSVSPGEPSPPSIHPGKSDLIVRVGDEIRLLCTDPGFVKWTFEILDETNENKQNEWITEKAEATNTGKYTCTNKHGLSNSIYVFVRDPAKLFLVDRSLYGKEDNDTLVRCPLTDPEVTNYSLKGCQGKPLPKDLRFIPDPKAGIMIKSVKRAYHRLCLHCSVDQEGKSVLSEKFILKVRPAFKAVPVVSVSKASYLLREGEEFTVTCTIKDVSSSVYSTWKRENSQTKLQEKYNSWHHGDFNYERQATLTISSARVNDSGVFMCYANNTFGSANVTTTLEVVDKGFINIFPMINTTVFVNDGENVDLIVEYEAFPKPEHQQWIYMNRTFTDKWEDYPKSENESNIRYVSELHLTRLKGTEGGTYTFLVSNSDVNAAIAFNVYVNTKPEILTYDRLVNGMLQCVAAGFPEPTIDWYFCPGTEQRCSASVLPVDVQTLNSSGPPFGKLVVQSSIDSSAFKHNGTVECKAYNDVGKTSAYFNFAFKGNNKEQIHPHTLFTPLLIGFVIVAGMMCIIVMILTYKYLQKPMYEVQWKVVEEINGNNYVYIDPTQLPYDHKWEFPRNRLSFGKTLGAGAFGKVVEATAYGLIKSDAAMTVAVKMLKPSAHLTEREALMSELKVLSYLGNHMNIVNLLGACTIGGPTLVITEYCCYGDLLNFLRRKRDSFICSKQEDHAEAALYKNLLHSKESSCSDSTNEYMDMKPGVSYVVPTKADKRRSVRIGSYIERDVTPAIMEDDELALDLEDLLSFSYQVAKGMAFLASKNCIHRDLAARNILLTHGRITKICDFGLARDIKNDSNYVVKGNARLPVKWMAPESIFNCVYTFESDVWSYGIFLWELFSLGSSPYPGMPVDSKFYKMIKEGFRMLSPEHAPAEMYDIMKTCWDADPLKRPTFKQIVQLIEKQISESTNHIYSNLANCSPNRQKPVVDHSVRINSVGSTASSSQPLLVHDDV
B-Raf, sequence (P15056 whole entry): as the sequence (P15056 whole entry V600E) above, with E600V counted along it

| IC50 (Src) | IC50 (C-Raf) | IC50 (B-Raf) | IC50 (Kit) | IC50 (B-Raf V600E) | IC50 (Kdr) | IC50 (TEC) | IC50 (MAP4K4) | IC50 (A-Raf) | IC50 (Fms) | Structure (SMILES) |
| --- | --- | --- | --- | --- | --- | --- | --- | --- | --- | --- |
| ≤ 10 µM | ≤ 10 µM | ≤ 10 µM | ≤ 10 µM | ≤ 10 µM | ≤ 10 µM | ≤ 10 µM | – | – | – | COc1ccnc2[nH]cc(C(=O)c3c(F)ccc(NS(=O)(=O)c4ccc(F)cc4)c3F)c12 [P-2027, N-[2,4-Difluoro-3-(4-methoxy-1H-pyrrolo[2,3-b]pyridine-3-carbonyl)-phenyl]-4-fluoro-benzenesulfonamide] |
| – | ≤ 10 µM | ≤ 10 µM | – | ≤ 10 µM | – | ≤ 10 µM | – | – | – | N#Cc1cnc2[nH]cc(C(=O)c3c(F)ccc(NS(=O)(=O)c4cccnc4)c3F)c2c1 [P-2072, Pyridine-3-sulfonic acid [3-(5-cyano-1H-pyrrolo[2,3-b]pyridine-3-carbonyl)-2,4-difluoro-phenyl]-amide] |
| ≤ 10 µM | ≤ 10 µM | ≤ 10 µM | ≤ 10 µM | ≤ 10 µM | ≤ 10 µM | – | ≤ 10 µM | ≤ 10 µM | ≤ 10 µM | CCCS(=O)(=O)Nc1ccc(F)c(C(=O)c2c[nH]c3ncc(-c4ccc(OCCN5CCOCC5)nc4)cc23)c1F [P-2232, Propane-1-sulfonic acid (2,4-difluoro-3-{5-[6-(2-morpholin-4-yl-ethoxy)-pyridin-3-yl]-1H-pyrrolo[2,3-b]pyridine-3-carbonyl}-phenyl)-amide] |
| ≤ 10 µM | ≤ 10 µM | ≤ 10 µM | ≤ 10 µM | ≤ 10 µM | ≤ 10 µM | – | ≤ 10 µM | ≤ 10 µM | ≤ 10 µM | CCCS(=O)(=O)Nc1ccc(F)c(C(=O)c2c[nH]c3ncc(-c4ccc(OCCN5CCCC5)nc4)cc23)c1F [P-2233, Propane-1-sulfonic acid (2,4-difluoro-3-{5-[6-(2-pyrrolidin-1-yl-ethoxy)-pyridin-3-yl]-1H-pyrrolo[2,3-b]pyridine-3-carbonyl}-phenyl)-amide] |
| ≤ 10 µM | ≤ 10 µM | ≤ 10 µM | ≤ 10 µM | ≤ 10 µM | ≤ 10 µM | – | ≤ 10 µM | ≤ 10 µM | ≤ 10 µM | CCCS(=O)(=O)Nc1ccc(F)c(C(=O)c2c[nH]c3ncc(-c4ccc(OCCCN5CCOCC5)nc4)cc23)c1F [P-2236, Propane-1-sulfonic acid (2,4-difluoro-3-{5-[6-(3-morpholin-4-yl-propoxy)-pyridin-3-yl]-1H-pyrrolo[2,3-b]pyridine-3-carbonyl}-phenyl)-amide] |
| – | ≤ 10 µM | ≤ 10 µM | ≤ 10 µM | ≤ 10 µM | – | ≤ 10 µM | – | – | – | CC(C)S(=O)(=O)Nc1ccc(F)c(C(=O)c2c[nH]c3ncc(C#N)cc23)c1F [P-2282, Propane-2-sulfonic acid [3-(5-cyano-1H-pyrrolo[2,3-b]pyridine-3-carbonyl)-2,4-difluoro-phenyl]-amide] |
| ≤ 10 µM | ≤ 10 µM | ≤ 10 µM | ≤ 10 µM | ≤ 10 µM | – | ≤ 10 µM | – | – | – | COc1ccnc2[nH]cc(C(=O)c3c(F)ccc(NS(=O)(=O)CC(C)C)c3F)c12 [P-2306, 2-Methyl-propane-1-sulfonic acid [2,4-difluoro-3-(4-methoxy-1H-pyrrolo[2,3-b]pyridine-3-carbonyl)-phenyl]-amide] |
| – | ≤ 10 µM | ≤ 10 µM | ≤ 10 µM | ≤ 10 µM | – | ≤ 10 µM | – | – | – | CC(C)CS(=O)(=O)Nc1ccc(F)c(C(=O)c2c[nH]c3ncc(C#N)cc23)c1F [P-2307, 2-Methyl-propane-1-sulfonic acid [3-(5-cyano-1H-pyrrolo[2,3-b]pyridine-3-carbonyl)-2,4-difluoro-phenyl]-amide] |
| ≤ 10 µM | ≤ 10 µM | ≤ 10 µM | – | ≤ 10 µM | ≤ 10 µM | ≤ 10 µM | – | – | – | CCC(C)S(=O)(=O)Nc1ccc(F)c(C(=O)c2c[nH]c3nccc(OC)c23)c1F (stereo not shown) [P-2313, Butane-2-sulfonic acid [2,4-difluoro-3-(4-methoxy-1H-pyrrolo[2,3-b]pyridine-3-carbonyl)-phenyl]-amide] |
| ≤ 10 µM | ≤ 10 µM | ≤ 10 µM | – | ≤ 10 µM | – | ≤ 10 µM | – | – | – | COc1ccnc2[nH]cc(C(=O)c3c(F)ccc(NS(=O)(=O)CCC(F)(F)F)c3F)c12 [P-2330, 3,3,3-Trifluoro-propane-1-sulfonic acid [2,4-difluoro-3-(4-methoxy-1H-pyrrolo[2,3-b]pyridine-3-carbonyl)-phenyl]-amide] |
| ≤ 10 µM | ≤ 10 µM | ≤ 10 µM | ≤ 10 µM | ≤ 10 µM | ≤ 10 µM | ≤ 10 µM | – | – | – | O=C(c1c(F)ccc(NS(=O)(=O)C2CCCC2)c1F)c1c[nH]c2ncc(Cl)cc12 [P-2358, Cyclopentanesulfonic acid [3-(5-chloro-1H-pyrrolo[2,3-b]pyridine-3-carbonyl)-2,4-difluoro-phenyl]-amide] |
| ≤ 10 µM | ≤ 10 µM | ≤ 10 µM | ≤ 10 µM | ≤ 10 µM | ≤ 10 µM | ≤ 10 µM | – | – | – | N#Cc1cnc2[nH]cc(C(=O)c3c(F)ccc(NS(=O)(=O)C4CCCC4)c3F)c2c1 [P-2359, Cyclopentanesulfonic acid [3-(5-cyano-1H-pyrrolo[2,3-b]pyridine-3-carbonyl)-2,4-difluoro-phenyl]-amide] |
| ≤ 10 µM | ≤ 10 µM | ≤ 10 µM | ≤ 10 µM | ≤ 10 µM | – | ≤ 10 µM | – | – | – | COc1ccnc2[nH]cc(C(=O)c3c(F)ccc(NS(=O)(=O)C4CCCCC4)c3F)c12 [P-2361, Cyclohexanesulfonic acid [2,4-difluoro-3-(4-methoxy-1H-pyrrolo[2,3-b]pyridine-3-carbonyl)-phenyl]-amide] |
| ≤ 10 µM | ≤ 10 µM | ≤ 10 µM | – | ≤ 10 µM | ≤ 10 µM | ≤ 10 µM | – | – | – | COc1ccnc2[nH]cc(C(=O)c3c(F)ccc(NS(=O)(=O)N(C)C)c3F)c12 [P-2376, N,N-dimethylamino-sulfonic acid [2,4-difluoro-3-(4-methoxy-1H-pyrrolo[2,3-b]pyridine-3-carbonyl)-phenyl]-amide] |
| ≤ 10 µM | ≤ 10 µM | ≤ 10 µM | – | ≤ 10 µM | ≤ 10 µM | ≤ 10 µM | – | – | – | COc1ccnc2[nH]cc(C(=O)c3c(F)ccc(NS(=O)(=O)N4CCCC4)c3F)c12 [P-2377, Pyrrolidine-1-sulfonic acid [2,4-difluoro-3-(4-methoxy-1H-pyrrolo[2,3-b]pyridine-3-carbonyl)-phenyl]-amide] |
| ≤ 10 µM | – | – | – | ≤ 10 µM | ≤ 10 µM | ≤ 10 µM | – | – | – | CCN(CC)S(=O)(=O)Nc1ccc(F)c(C(=O)c2c[nH]c3nccc(OC)c23)c1F [P-2378, N,N-diethylamino-sulfonic acid [2,4-difluoro-3-(4-methoxy-1H-pyrrolo[2,3-b]pyridine-3-carbonyl)-phenyl]-amide] |
| – | ≤ 10 µM | ≤ 10 µM | – | ≤ 10 µM | ≤ 10 µM | ≤ 10 µM | – | – | – | N#Cc1cnc2[nH]cc(C(=O)c3cccc(NS(=O)(=O)C4CCCC4)c3F)c2c1 [P-2417, Cyclopentanesulfonic acid [3-(5-cyano-1H-pyrrolo[2,3-b]pyridine-3-carbonyl)-2-fluoro-phenyl]-amide] |
